We go through eight compounds from article PMC10941402, “Abcg2a is the functional homolog of human ABCG2 expressed at the zebrafish blood–brain barrier” (Fluids and Barriers of the CNS, 2024).

Structures are written as SMILES.

The test system of data set [1] is T1, Abcg2c.
T1 construct: HEK-293 HEK-293 stably expressing full-length FLAG-tagged zebrafish Abcg2c
The data set is described as follows: cells. Further details: species or system HEK-293; CellTiter-Glo growth inhibition of transporter-transfected HEK-293 cells, luminescence. The following applies: Homo sapiens, HEK293, 72 h; cells expressing zebrafish Abcg2c. On the procedure:
(§1) Trypsinized cells were plated at 5,000 cells/well in white opaque 96-well plates and allowed to adhere overnight. Drugs were then added, with each concentration tested in triplicate, and cells were incubated for 72 h. Cell growth was assessed using the CellTiter-Glo (Promega, Madison, WI) reagent, according to the manufacturer’s instructions. Luminescence was measured on a Tecan Infinite M200 Pro microplate reader (Tecan Group, Morrisville, NC, RRID:SCR_019033). […] Relative resistance (RR) values are the ratio of the GI50 values of the transporter transfected versus the empty vector-transfected HEK-293 cells. HEK-293 cells (ATCC, Manassas, VA, RRID:CVCL_0045) were transfected with empty pcDNA3.1 vector or with vector containing full-length abcg2a (NM_001042775), abcg2b (NM_001039066), abcg2c (XM_005156523) or abcg2d (NM_001042772) (all from Genscript, Piscataway, NJ), flanked by a C-terminal FLAG tag sequence. The R-5 cell line was generated as previously described from HEK-293 cells transfected with full-length ABCG2 [18]. Transfected cells were cultured at 37 °C and at 5% CO2 in EMEM (Quality Biological, Gaithersburg, MD) supplemented with 10% fetal calf serum, penicillin/streptomycin (Quality Biological) and 2 mg/ml G418 (Mediatech, Manassas, VA). To determine if zebrafish Abcg2a-d were able to confer resistance to known cytotoxic substrates of ABCG2, cytotoxicity assays were performed and quantified by the drug concentration that produces 50% cell growth inhibition (GI50). Among the zebrafish Abcg2 homologs, Abcg2a conferred the highest level of resistance to MLN7243 (a ubiquitin activating enzyme inhibitor), MLN4924 (NEDD8 activating enzyme inhibitor), and CUDC-101 (histone deacetylase and receptor tyrosine kinase inhibitor) (Fig. 2, Additional file 5: Table S1). Abcg2d conferred the least resistance to THZ 531 (CDK12/13 inhibitor), CUDC-101, and gedatolisib (an inhibitor of phosphatidylinositol-3-kinase (PI3K) and mammalian target of rapamycin (mTOR)). […] Abcg2b and Abcg2c often conferred similar levels of resistance to the same substates, as evidenced by results with MLN7243, MLN4924, THZ 531, CUDC-101 and gedatolisib.

Another data set has as its system T2, Abcg2d.
T2 construct: HEK-293 HEK-293 stably expressing full-length FLAG-tagged zebrafish Abcg2d
The data set is described as follows: cells. Also noted: species or system HEK-293; CellTiter-Glo growth inhibition of transporter-transfected HEK-293 cells, luminescence. Conditions: Homo sapiens, HEK293, 72 h; cells expressing zebrafish Abcg2d. On the procedure:
as §1

Another data set concerns T3, Empty vector.
T3 construct: HEK-293 HEK-293 stably transfected with empty pcDNA3.1
The data set is described as follows: cells. Also noted: species or system HEK-293; CellTiter-Glo growth inhibition of transporter-transfected HEK-293 cells, luminescence. The following applies: Homo sapiens, HEK293, 72 h. The protocol: as §1

The subject of data set [2] is T4, Abcg2b.
T4 construct: HEK-293 HEK-293 stably expressing full-length FLAG-tagged zebrafish Abcg2b
The data set is described as follows: cells. Conditions: Homo sapiens, HEK293, 72 h; cells expressing zebrafish Abcg2b. Also noted: species or system HEK-293; CellTiter-Glo growth inhibition of transporter-transfected HEK-293 cells, luminescence. On the procedure:
as §1

Data set [3] relates to T5, ABCG2.
T5 construct: HEK-293 R-5 HEK-293 stably expressing full-length human ABCG2 (R-5)
The data set is described as follows: cells. Also noted: species or system HEK-293; CellTiter-Glo growth inhibition of transporter-transfected HEK-293 cells, luminescence. Conditions: HEK293, 72 h; cells expressing human ABCG2. The protocol: as §1

The subject of data set [4] is T6, Abcg2a.
T6 construct: HEK-293 HEK-293 stably expressing full-length FLAG-tagged zebrafish Abcg2a
The data set is described as follows: cells. Also noted: species or system HEK-293; CellTiter-Glo growth inhibition of transporter-transfected HEK-293 cells, luminescence. Conditions: Homo sapiens, HEK293, 72 h; cells expressing zebrafish Abcg2a. The protocol: as §1

Data set [5] addresses T7, Abcg2a (Danio rerio, UniProt Q2Q447).
T7 construct: homodimer
T7 sequence (Q2Q447 1-643): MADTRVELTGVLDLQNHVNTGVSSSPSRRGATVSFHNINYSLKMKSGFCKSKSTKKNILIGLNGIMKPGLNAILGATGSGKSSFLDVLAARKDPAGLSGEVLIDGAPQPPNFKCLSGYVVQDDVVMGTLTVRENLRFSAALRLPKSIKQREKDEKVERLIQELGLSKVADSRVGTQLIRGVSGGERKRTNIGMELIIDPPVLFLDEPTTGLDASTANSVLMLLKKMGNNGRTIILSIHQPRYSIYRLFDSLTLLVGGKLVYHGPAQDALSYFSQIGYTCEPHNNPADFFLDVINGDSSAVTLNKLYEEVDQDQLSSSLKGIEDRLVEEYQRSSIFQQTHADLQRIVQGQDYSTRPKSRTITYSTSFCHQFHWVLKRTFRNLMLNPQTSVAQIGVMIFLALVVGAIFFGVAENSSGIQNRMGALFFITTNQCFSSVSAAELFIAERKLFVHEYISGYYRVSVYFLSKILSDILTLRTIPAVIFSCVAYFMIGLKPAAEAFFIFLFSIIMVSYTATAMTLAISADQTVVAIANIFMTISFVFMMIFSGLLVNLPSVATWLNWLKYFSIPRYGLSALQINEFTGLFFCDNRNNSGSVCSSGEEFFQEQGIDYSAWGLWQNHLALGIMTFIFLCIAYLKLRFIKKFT
The data set is described as follows: flow cytometry efflux assay. It counts as cell-based. The following applies: 5 µM substrate, 37 °C, with and without inhibitor.

The target of data set [6] is T8, Abcg2b (Danio rerio, UniProt Q2Q446).
T8 construct: homodimer
T8 sequence (Q2Q446 1-618): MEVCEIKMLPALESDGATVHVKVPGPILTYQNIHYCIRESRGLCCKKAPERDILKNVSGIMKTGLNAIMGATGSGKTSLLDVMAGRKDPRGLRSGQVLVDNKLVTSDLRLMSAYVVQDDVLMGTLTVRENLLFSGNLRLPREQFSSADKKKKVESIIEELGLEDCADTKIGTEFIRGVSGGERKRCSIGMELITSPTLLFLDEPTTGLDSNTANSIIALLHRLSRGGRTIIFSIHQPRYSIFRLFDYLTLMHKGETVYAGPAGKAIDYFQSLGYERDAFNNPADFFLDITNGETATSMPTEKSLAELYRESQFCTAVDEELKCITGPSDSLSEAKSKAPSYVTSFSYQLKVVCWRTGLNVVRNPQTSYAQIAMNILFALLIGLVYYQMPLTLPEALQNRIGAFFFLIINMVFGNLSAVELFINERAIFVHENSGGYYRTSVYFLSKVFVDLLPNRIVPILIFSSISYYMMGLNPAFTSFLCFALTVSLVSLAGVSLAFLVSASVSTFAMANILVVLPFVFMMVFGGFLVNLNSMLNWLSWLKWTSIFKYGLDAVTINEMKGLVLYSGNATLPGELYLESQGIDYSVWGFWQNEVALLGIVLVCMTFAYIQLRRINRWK
The data set can be described thus: flow cytometry efflux assay. The following applies: 5 µM substrate, 37 °C, with and without inhibitor. It counts as cell-based.

For data set [7], the target named is T9, ABCG2 (Homo sapiens, UniProt Q9UNQ0).
T9 construct: homodimer
T9 sequence (Q9UNQ0 1-655): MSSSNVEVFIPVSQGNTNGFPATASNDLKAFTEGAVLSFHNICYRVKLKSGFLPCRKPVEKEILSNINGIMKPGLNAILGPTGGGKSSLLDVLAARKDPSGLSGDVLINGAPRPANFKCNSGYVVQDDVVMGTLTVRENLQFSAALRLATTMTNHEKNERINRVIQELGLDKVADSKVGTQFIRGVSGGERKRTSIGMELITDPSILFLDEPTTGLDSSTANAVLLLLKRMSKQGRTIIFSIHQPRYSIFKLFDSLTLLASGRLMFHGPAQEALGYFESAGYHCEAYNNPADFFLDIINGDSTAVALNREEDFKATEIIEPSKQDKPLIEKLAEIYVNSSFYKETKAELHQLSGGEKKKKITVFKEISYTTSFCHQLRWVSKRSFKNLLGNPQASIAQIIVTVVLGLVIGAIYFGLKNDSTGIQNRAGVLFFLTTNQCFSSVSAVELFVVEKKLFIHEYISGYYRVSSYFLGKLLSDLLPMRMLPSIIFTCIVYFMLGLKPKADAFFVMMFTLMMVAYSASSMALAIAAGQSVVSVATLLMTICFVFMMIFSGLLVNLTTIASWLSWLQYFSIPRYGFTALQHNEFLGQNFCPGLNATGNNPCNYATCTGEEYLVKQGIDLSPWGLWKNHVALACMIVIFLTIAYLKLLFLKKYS
The data set can be described thus: flow cytometry efflux assay. It counts as cell-based. Conditions: 5 µM substrate, 37 °C, with and without inhibitor.

Data set [8] concerns the target T10, Abcg2c (Danio rerio, UniProt A0A8M2B3F2).
T10 construct: homodimer
T10 sequence (A0A8M2B3F2 1-640): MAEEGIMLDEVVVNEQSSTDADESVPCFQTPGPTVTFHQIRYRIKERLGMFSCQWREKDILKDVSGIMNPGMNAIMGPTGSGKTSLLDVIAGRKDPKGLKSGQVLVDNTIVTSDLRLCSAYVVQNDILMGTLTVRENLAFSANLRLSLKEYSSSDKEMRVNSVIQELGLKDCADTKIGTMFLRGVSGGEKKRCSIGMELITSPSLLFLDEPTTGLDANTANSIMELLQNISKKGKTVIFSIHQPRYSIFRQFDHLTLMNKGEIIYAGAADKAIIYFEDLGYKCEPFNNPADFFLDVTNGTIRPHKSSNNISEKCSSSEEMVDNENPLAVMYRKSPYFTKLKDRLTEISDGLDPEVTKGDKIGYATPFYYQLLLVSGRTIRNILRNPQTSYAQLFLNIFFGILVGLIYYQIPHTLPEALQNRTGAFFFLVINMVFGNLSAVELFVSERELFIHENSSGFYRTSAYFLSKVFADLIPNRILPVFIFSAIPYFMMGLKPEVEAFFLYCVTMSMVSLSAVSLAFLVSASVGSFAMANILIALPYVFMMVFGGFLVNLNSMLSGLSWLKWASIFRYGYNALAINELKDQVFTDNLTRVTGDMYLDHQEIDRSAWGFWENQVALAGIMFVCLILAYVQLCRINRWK
The data set is described as follows: flow cytometry efflux assay. Conditions: 5 µM substrate, 37 °C, with and without inhibitor. Format: cell-based.

For the compound `C#Cc1cccc(Nc2ncnc3cc(OC)c(OCCCCCCC(=O)NO)cc23)c1` [CUDC-101], the 50% growth inhibitory concentration (GI50) with Abcg2c [1] worked out at 1690 ± 290 nM; with Abcg2d, 1040 ± 260 nM; with Empty vector, 780 ± 100 nM; in the data set with Abcg2b [2], 2090 ± 190 nM; in the data set with ABCG2 [3], 11300 ± 2000 nM; with Abcg2a [4], 5420 ± 1400 nM.
As for `CN(C)C1CCN(C(=O)c2ccc(NC(=O)Nc3ccc(-c4nc(N5CCOCC5)nc(N5CCOCC5)n4)cc3)cc2)CC1` [Gedatolicib, gedatolisib], the concentration for 50% growth inhibition (GI50) was 3260 ± 490 nM in the data set with Abcg2c [1]; 820 ± 500 nM with Abcg2d; 200 ± 10 nM in the data set on Empty vector; 4060 ± 1500 nM in the data set with Abcg2b [2]; 3840 ± 1500 nM in the data set on ABCG2 [3]; 1390 ± 190 nM with Abcg2a [4].
Take `NS(=O)(=O)OC[C@@H]1C[C@@H](n2ccc3c(N[C@H]4CCc5ccccc54)ncnc32)C[C@@H]1O` [MLN 4924]: the concentration for 50% growth inhibition (GI50) was found to be 487 ± 40 nM in the data set with Abcg2c [1]; 353 ± 190 nM in the data set with Abcg2d; 420 ± 90 nM with Empty vector; 520 ± 52 nM with Abcg2b [2]; 7320 ± 1700 nM with ABCG2 [3]; 2440 ± 170 nM in the data set on Abcg2a [4].
As for `NS(=O)(=O)OC[C@H]1C[C@@H](Nc2ccnc3cc(-c4cccc(SC(F)(F)F)c4)nn23)[C@H](O)[C@@H]1O` [MLN 7243], the GI50 in the data set on Abcg2c [1] stood at 200 ± 20 nM; in the data set with Abcg2d, 179 ± 23 nM; in the data set with Empty vector, 69 ± 5 nM; in the data set on Abcg2b [2], 151 ± 51 nM; in the data set with ABCG2 [3] it was 15400 ± 220 nM.
Take `Cc1nc(Nc2[nH]nc3c2CN(C(=O)N[C@H](CN(C)C)c2ccccc2)C3(C)C)c2sccc2n1` [PF-3758309]: the GI50 was 1970 ± 710 nM in the data set with Abcg2c [1]; 1540 ± 650 nM in the data set on Abcg2d; 68 ± 30 nM with Empty vector; 413 ± 150 nM in the data set with Abcg2b [2]; 2360 ± 540 nM in the data set on ABCG2 [3]; 1260 ± 530 nM with Abcg2a [4].
Consider `CN(C)C/C=C/C(=O)Nc1ccc(C(=O)N2CCC[C@@H](Nc3ncc(Cl)c(-c4c[nH]c5ccccc45)n3)C2)cc1` [THZ 531], for which the 50% growth inhibitory concentration (GI50) in the data set on Abcg2c [1] was found to be 11400 ± 1000 nM; in the data set on Abcg2d, 3990 ± 240 nM; in the data set with Empty vector it was 1290 ± 140 nM; with Abcg2b [2], 10500 nM; in the data set on ABCG2 [3] it was 65900 ± 3700 nM; with Abcg2a [4] it was 18300 ± 3600 nM.
With `O=C1c2c(O)ccc(O)c2C(=O)c2c(NCCNCCO)ccc(NCCNCCO)c21` [mitoxantrone], the “flow cytometry efflux assay” value at Abcg2a [5] is “rightward inhibited peak shift for Abcg2a with mitoxantrone”.
Consider `C=Cc1c(C)c2cc3nc(c4c5[nH]c(cc6nc(cc1[nH]2)C(C)=C6CC)c(C)c5C(=O)[C@@H]4C(=O)OC)[C@@H](CCC(=O)O)[C@@H]3C` [pheophorbide a], for which the “flow cytometry efflux assay” value at Abcg2a [5] was “to a greater extent with pheophorbide a, indicating Abcg2a can efflux both substrates”; on Abcg2b [6] it was “Pheophorbide a also appears to be a substrate for Abcg2b and Abcg2c”; on ABCG2 [7], “ABCG2-expressing cells exhibit an increase in intracellular fluorescence”; on Abcg2c [8], “Pheophorbide a also appears to be a substrate for Abcg2b and Abcg2c”.
